Assay results taken from publication PMC9763021, “Comprehensive Assessment of Biomolecular Interactions of Morpholine-Based Mixed Ligand Cu(II) and Zn(II) Complexes of 2,2′-Bipyridine as Potential Anticancer and SARS-CoV-2 Agents: A Synergistic Experimental and Structure-Based Virtual Screening” (Bioinorganic Chemistry and Applications, 2022).

Experiments:
CT-DNA = experiment: DNA binding by UV-visible absorption titration; set-up: species or system calf thymus; details: for % H (hypochromism) / Δλ nm (red shift on DNA binding): Tris-HCl pH 7.4, 25°C; for ∆Gb° BH-I: from Kb BH-I; for ∆Gb° BH-I / ∆Gb° (BH-II) / ∆Gb° SK-I / ∆Gb° (SK-II) / ∆Gb° WS-I / ∆Gb° (WS-II): T = 298 K; for ∆Gb° (BH-II): from Kb BH-II; for ∆Gb° SK-I: from Kb SK-I; for ∆Gb° (SK-II): from Kb SK-II; for ∆Gb° WS-I: from Kb WS-I; for ∆Gb° (WS-II): from Kb WS-II
Protocol: The DNA-binding experiment was conducted by an electronic absorption spectrophotometer by raising the DNA concentration from zero to 50 μM to the given concentration of all samples (50 μM) in Tris-HCl buffer solution (pH: 7.4) at 25°C [6, 28, 31, 32].
UV-visible absorption titration is the main imperative approach to observing the tendency of test substances to bind with deoxyribonucleic acid. The approach is commonly utilized to evaluate the potency and mode of binding of the test substances with deoxyribonucleic acid. The essential information regarding conformational change, the effectiveness of the DNA-substance binding, and the negatively charged phosphate on deoxyribonucleic acid are neutralized via exterior contact, and intercalation through interactions between π-π stacks is presented by DNA binding towards metal complexes. All complexes (1a-2a), including the free ligand (HL), were measured in the presence and absence of deoxyribonucleic acid by ultraviolet-visible spectrophotometric titrations under Tris-HCl buffer solution (pH: 7.4) at room temperature (Figure 2). In this case, all samples were exposed to two prominent electronic absorption bands at 260 nm and 336–343 nm, consequent to the π-π^∗ transition of the phenyl chromophore and MLCT, respectively. While the amount of DNA concentration rises in each test compound, the interaction of the chemical substance with DNA base pairs generates noticeable alterations in the intraligand charge transfer bands' strength and wavelength. […] The Kb findings were measured for all samples by the Wolfe–Shimmer equations […] by methods I and II, respectively, from the findings of the slope divided by the intercept in the linear regression plots of [DNA]/(ɛa − ɛf) vs. [DNA] and the intercept divided by intercept slope in the linear regression plot of (ɛb − ɛf)/(ɛa − ɛf) vs. 1/[DNA] M^−1 (Figure S17), and the Kb results for each sample were in the subsequent sequence: (1a) > (2a) > (HL). […] It is concluded that the morpholine linked ligand's coplanarity and 2,2′-bipyridine aromatic system complexation with the metal center, which promotes the complex to infiltrate DNA base pairs smoothly, and large aromatic systems may also assist the complex to penetrate the phosphate backbone's core deeply, and those substances may permit the complex to freely penetrate deep into the deoxyribonucleic acid double helix. In addition, the observed isosbestic points are found at 256 and 276 nm for free ligand and complexes (1a-2a), respectively. […] The Wolfe–Shimmer (1 and 2), Benesi–Hildebrand (3 and 4), and Sakthi–Krause equations (5 and 6) were supported to evaluate Kb results for all samples (Table 1). The Benesi–Hildebrand binding constant (Kb) values were measured using equations (3) and (4) by methods I and II, respectively, from the intercept divided by slope in the linear regression plot of [1/(Ax − A0)] vs. {1/[DNA]} M^−1 and the intercept divided by slope in the linear regression plot of [(Amax − A0)/(Ax − A0)] vs. {1/[DNA]} M^−1 (Figure S18). The Kb values were estimated using Sakthi–Krause equations (5) and (6) by methods I and II, respectively, with the intercept divided by slope in the linear regression plot of [(A/(A0 − A)] vs. {1/[DNA]} M^−1 (Figure S19) and the antilogarithm value of the intercept in the linear regression plot of log {1/[DNA]} vs. log [(A/(A0 − A)]M^−1 (Figure S20). In addition, the Van't Hoff equation (7) was supported to obtain the ∆Gb° values for DNA interaction, and equation (8) was supported to measure the % of chromicity for all substances (Table 1). The overall measured Kb findings were in the subsequent sequence: (1a) > (2a) > (HL). In these cases, the observed ∆Gb° values were reported in the range of −19.91 to −29.13, −21.55 to −26.04 and −22.50 to –25.22 kJ·mol^−1, respectively (Table 1). In these cases, the complex (1a) had the highest DNA-binding efficacy among all binding results. […]

Pseudomonas aeruginosa = experiment: Agar disc diffusion, strain D; assay type: cell-based; set-up: (inhibition %): concentration or dose not given beside the values; details: for diameter of the clear zone inhibition: control = 6 mm
Protocol: (§1) In-vitro antimicrobial properties were evaluated for all samples by the agar disc diffusion method towards different fungal and bacterial strains. Additionally, the reported inhibition zone values were comparatively analyzed with the standard antifungal drugs ketoconazole and amphotericin B as well as the standard antibiotic medications streptomycin and amikacin.
(§2) The current research has a curious focus on the in vitro antimicrobial properties of biological systems because these studies are crucial for developing effective antibacterial and antifungal medications. […] It can also be spelled out based on the chelation theory proposed by Overtone and Tweedy. Chelation theory points out that the partial exchanging of the positive charge of the metal center with donor moieties, and overlap of the ligand orbitals will reduce the greater degree of the metal ion's polarity, which ultimately rises the delocalization of π and d electrons over the full chelated ring system. By raising the size of the metal ion due to the retarding of polarization, chelation may also enhance the complexes' lipophilic characteristics, which further stimulate the lipid membrane permeability and break down the bacteria' enzymes responsible for cell wall formation, therefore slowing down the regular cell processes. By preventing the production of cell walls/proteins/DNA, including by obstructing folate metabolism and the cytoplasmic membrane, antimicrobial drugs frequently either fully eliminate microbes or only prevent their cell growth. Additionally, the samples' mode of action may be employed in disrupting the cell's respiration process by forming an H-bond during the morpholine-fused iminic group coordinated with the active metal center of its components, inhibiting proliferation of the cell. […] The difference in the antimicrobial efficacy of some of the compounds towards various microorganisms influences on the impermeability of the cells of the germs or the diversity of ribosomes of the microbes. The % of the inhibition of all substances is estimated from (45) (Table 9).
(§3) (A, B, C, D, and E are represented as gram negative bacteria species Escherichia coli, Salmonella enteric serovar typhi, Salmonella enteric serovar typhi, Pseudomonas aeruginosa, and Shigella flexneri, respectively. F & G are denoted as gram positive bacteria species Staphylococcus aureus and Bacillus cereus. H, I, and J are represented as fungal strains Aspergillus niger, Candida albicans, and Mucor indicus. Standard drugs for bacterial strains: Amikacin & Streptomycin Standard drugs for fungal strains: Ketoconazole and Amphotericin B. [Control (DMSO) = 6 mm].(44) Inhibition %=T–C/T×100, where T and C are represented as the diameter of microbial growth of the sample plates and the control plate (6 mm), respectively. Error limits ±2.5–5.0% (P ≤ 0.05).

Bacillus cereus = experiment: Agar disc diffusion, strain G; assay type: cell-based; set-up: (inhibition %): concentration or dose not given beside the values; details: for diameter of the clear zone inhibition: control = 6 mm
Protocol: as §1, §2, §3

Candida albicans = experiment: Agar disc diffusion, strain I; assay type: cell-based; set-up: (inhibition %): concentration or dose not given beside the values; details: for diameter of the clear zone inhibition: control = 6 mm
Protocol: as §1, §2, §3

SMILES | % H (hypochromism) (CT-DNA) [%] | Δλ nm (red shift on DNA binding) (CT-DNA) [nm] | ∆Gb° BH-I (CT-DNA) [kcal/mol] | ∆Gb° (BH-II) (CT-DNA) [kcal/mol] | ∆Gb° SK-I (CT-DNA) [kcal/mol] | ∆Gb° (SK-II) (CT-DNA) [kcal/mol] | ∆Gb° WS-I (CT-DNA) [kcal/mol] | ∆Gb° (WS-II) (CT-DNA) [kcal/mol] | (inhibition %) (Pseudomonas aeruginosa) [%] | diameter of the clear zone inhibition (Pseudomonas aeruginosa) [mm] | (inhibition %) (Bacillus cereus) [%] | diameter of the clear zone inhibition (Bacillus cereus) [mm] | (inhibition %) (Candida albicans) [%] | diameter of the clear zone inhibition (Candida albicans) [mm]
[O-]c1ccccc1N=Cc1ccc(N2CCOCC2)cc1.[O-]c1ccccc1N=Cc1ccc(N2CCOCC2)cc1.[Zn+2].c1ccc(-c2ccccn2)nc1 [(2a), [Zn(L)2(bpy)]] | 43.15 | 05 | -5.925 | -5.937 | -5.664 | -5.868 | -5.8114 | -5.774 | 33 | 09 | 57 | 14 | 54 | 13
Oc1ccccc1N=Cc1ccc(N2CCOCC2)cc1 [(HL), 2-(4-morpholinobenzylideneamino)phenol] | 37.13 | 04 | -5.151 | -5.851 | -5.378 | -5.779 | -5.7 | -5.712 | 25 | 08 | 33 | 09 | 40 | 10
[Cu+2].[O-]c1ccccc1N=Cc1ccc(N2CCOCC2)cc1.[O-]c1ccccc1N=Cc1ccc(N2CCOCC2)cc1.c1ccc(-c2ccccn2)nc1 [(1a), [Cu(L)2(bpy)]] | 52.18 | 07 | -6.224 | -5.985 | -5.772 | -6.028 | – | -5.918 | 33 | 09 | 54 | 13 | 50 | 12
